Test results published in patent US12673975B2, “Cyclic peptide, cell scaffold material, cell separating material, and medium” (FUJIFILM Corporation, priority 2019, dated 2026).
pKd: −log10 of the molar value. Like-named read-outs stand apart in the source and are kept apart here. Starred links: 1 amine or outer side, 2 acyl side, 3 side chain; linkers in the order of their positions; H or OH if unused. Positions of bridges follow the written chain, without caps; N, C: chain ends. Non-standard residues stand in square brackets, D forms with d. Residues, ends and D or L forms follow the SMILES beside them. Pen = CC(C)(S)[C@H](N)C(=O)O; hCys = N[C@@H](CCS)C(=O)O; Dab = NCC[C@H](N)C(=O)O; Dap = NC[C@H](N)C(=O)O; X1 = O=C(C[*:2])[*:1]; X2 = O=C(C[*:1])[*:2]

Columns and labels:
[1] = Evaluation of molecule stability (alkali treatment, residual rate by LC/MS); type: physicochemical; conditions: for Stability (molecule stability, residual rate of the cyclic peptide rank): alkali treatment, residual rate by LC/MS; for Performance evaluation: Stability (residual rate of cyclic peptide after alkali treatment): 500 μM peptide aqueous solution plus equivalent of 1 M sodium hydroxide, 15° C., 3 hours, LC/MS peak area
In short: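 500 μM aqueous cyclic peptide mixed with an equal volume of 1 M NaOH and held 3 h at 15 °C. Residual rate is total LC/MS peak area after treatment relative to untreated (100%), using a C18 column, pH 3 ammonium formate/acetonitrile gradient, 45 °C, ESI±.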

human integrin αvβ5 = human integrin αvβ5 (Homo sapiens, UniProt P06756+P18084); experiment: Evaluation of integrin binding property (surface plasmon resonance, Biacore 3000, immobilized cyclic peptide)
In short: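 SPR with cyclic peptide amine-coupled via EDC/NHS to a CM5 chip, blank channel as reference. Integrin αvβ5 at 30, 100, 300 and 1,000 nM injected 10 min at 25 °C in HEPES buffer pH 7.4 with 5 mM MgCl2, 30 min buffer flow, EDTA regeneration; Kd from reference-subtracted signals, graded by category.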

[2] = surface plasmon resonance, immobilized cyclic peptide, human integrin αvβ5, read-out: Binding activity (integrin binding property, dissociation constant rank)
[3] = SPR, 25° C., HEPES buffer with 5 mM magnesium chloride, integrin 30-1,000 nM, read-out: Performance evaluation: Binding activity (dissociation constant between the cyclic peptide and human integrin αvβ5)

Chain of human integrin αvβ5 (P06756 31-1048): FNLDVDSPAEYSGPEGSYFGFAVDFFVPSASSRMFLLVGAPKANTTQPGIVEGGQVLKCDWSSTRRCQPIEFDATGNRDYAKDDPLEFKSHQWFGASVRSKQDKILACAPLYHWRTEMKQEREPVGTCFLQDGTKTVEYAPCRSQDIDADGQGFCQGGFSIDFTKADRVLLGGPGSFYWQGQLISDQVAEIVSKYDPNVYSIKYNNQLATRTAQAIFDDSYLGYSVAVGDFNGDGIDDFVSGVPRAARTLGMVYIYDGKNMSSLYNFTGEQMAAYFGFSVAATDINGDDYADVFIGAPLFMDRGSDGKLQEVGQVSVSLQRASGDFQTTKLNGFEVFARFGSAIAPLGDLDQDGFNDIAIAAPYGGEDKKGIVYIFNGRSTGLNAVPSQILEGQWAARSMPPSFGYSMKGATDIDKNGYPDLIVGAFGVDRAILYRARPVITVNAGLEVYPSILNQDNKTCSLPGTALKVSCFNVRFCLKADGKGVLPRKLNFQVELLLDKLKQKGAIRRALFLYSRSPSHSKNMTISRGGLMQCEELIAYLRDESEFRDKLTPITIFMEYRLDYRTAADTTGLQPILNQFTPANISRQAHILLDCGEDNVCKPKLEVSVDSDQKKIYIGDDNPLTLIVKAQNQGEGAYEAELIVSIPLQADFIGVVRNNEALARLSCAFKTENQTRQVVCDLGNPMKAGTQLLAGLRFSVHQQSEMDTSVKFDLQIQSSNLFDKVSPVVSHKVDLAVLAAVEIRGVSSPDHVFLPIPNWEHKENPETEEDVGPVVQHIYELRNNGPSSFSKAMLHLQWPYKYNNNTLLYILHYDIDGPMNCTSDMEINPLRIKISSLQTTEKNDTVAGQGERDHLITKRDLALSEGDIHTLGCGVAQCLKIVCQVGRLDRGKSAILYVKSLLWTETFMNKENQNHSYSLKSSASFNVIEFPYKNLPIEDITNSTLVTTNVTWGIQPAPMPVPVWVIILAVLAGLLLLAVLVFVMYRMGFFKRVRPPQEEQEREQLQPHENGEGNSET
Chain of human integrin αvβ5 (P18084 24-799): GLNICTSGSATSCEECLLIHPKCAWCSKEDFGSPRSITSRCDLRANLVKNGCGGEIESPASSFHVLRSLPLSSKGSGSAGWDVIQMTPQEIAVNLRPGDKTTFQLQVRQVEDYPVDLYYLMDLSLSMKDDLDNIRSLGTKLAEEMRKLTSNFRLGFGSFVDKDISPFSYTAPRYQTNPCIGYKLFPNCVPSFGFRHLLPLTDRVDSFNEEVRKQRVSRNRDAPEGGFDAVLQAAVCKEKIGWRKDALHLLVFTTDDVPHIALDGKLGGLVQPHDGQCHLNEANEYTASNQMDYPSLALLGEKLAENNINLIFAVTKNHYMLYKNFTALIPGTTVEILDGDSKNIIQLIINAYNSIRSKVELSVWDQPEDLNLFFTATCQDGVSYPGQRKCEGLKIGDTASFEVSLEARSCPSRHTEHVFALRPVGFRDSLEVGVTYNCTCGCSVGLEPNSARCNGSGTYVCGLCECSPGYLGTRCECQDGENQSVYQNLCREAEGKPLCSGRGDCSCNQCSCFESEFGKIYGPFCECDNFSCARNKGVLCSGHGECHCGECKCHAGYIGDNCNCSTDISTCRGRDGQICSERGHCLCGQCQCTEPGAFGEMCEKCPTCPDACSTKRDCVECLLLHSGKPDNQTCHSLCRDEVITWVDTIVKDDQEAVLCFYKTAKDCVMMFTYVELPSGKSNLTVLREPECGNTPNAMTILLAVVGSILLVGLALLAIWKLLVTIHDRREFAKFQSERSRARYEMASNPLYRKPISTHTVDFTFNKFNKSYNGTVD

| SMILES | pKd (human integrin αvβ5; [2]) | pKd (human integrin αvβ5; [3]) | Stability (molecule stability, residual rate of the cyclic peptide rank) [1] | Performance evaluation: Stability (residual rate of cyclic peptide after alkali treatment) [1] |
| --- | --- | --- | --- | --- |
| CC(C)[C@@H]1NC(=O)[C@H](CC(=O)O)NC(=O)CNC(=O)[C@H](CCCNC(=N)N)NC(=O)[C@@H]2CCCN2C(=O)[C@H](C(C)C)NC(=O)[C@@H](NC(=O)[C@H](CCCCN)NC(=O)[C@H](CCCCN)NC(=O)[C@@H](N)CCCCN)CCSCC(=O)NCC[C@@H](C(=O)O)NC(=O)[C@H](C)NC(=O)[C@H](Cc2ccccc2)NC1=O [Cyclic peptide 151, KKK-(Hcy)-VPRGDVFA(Dab(acetyl))] (H-KKK[hCys]VPRGDVFA[Dab]-OH; linker 4-13 via X2) | > 7.30 | – | A (The residual rate of the cyclic peptide is 70% or more.) | – |
| CC[C@H](C)[C@@H]1NC(=O)[C@@H](NC(=O)[C@H](CCCCN)NC(=O)[C@H](CCCCN)NC(=O)[C@@H](N)CCCCN)CCSCC(=O)NCC[C@@H](C(=O)N[C@@H](C)C(=O)O)NC(=O)[C@H](C)NC(=O)[C@H](CCCNC(=N)N)NC(=O)[C@H](Cc2ccccc2)NC(=O)[C@H](CC(N)=O)NC(=O)[C@H](CC(=O)O)NC(=O)CNC(=O)[C@H](CCCNC(=N)N)NC(=O)[C@@H]2CCCN2C1=O [Cyclic peptide 16, KKK-(Hcy)-IPRGDNFRA(Dab(acetyl))A] (H-KKK[hCys]IPRGDNFRA[Dab]A-OH; linker 4-14 via X2) | – | 7.00 to 7.30 | – | A (The residual rate of the cyclic peptide is 70% or more.) |
| C[C@@H]1NC(=O)[C@H](Cc2ccccc2)NC(=O)[C@H](CO)NC(=O)[C@H](CC(=O)O)NC(=O)CNC(=O)[C@H](CCCNC(=N)N)NC(=O)[C@H]([C@@H](C)O)NC(=O)[C@H]([C@@H](C)O)NC(=O)[C@@H](NC(=O)[C@H](CCCCN)NC(=O)[C@H](CCCCN)NC(=O)[C@@H](N)CCCCN)CCSCC(=O)NCC[C@@H](C(=O)O)NC1=O [Cyclic peptide 157, KKK-(Hcy)-TTRGDSFA(Dab(acetyl))] (H-KKK[hCys]TTRGDSFA[Dab]-OH; linker 4-13 via X2) | > 7.30 | – | A (The residual rate of the cyclic peptide is 70% or more.) | – |
| N=C(N)NCCC[C@@H]1NC(=O)[C@H](Cc2ccc(O)cc2)NC(=O)[C@H](CC(N)=O)NC(=O)[C@H](CC(=O)O)NC(=O)CNC(=O)[C@H](CCCNC(=N)N)NC(=O)[C@@H]2CCCN2C(=O)[C@H](CCC(=O)O)NC(=O)[C@@H](NC(=O)[C@H](CCCCN)NC(=O)[C@H](CCCCN)NC(=O)[C@@H](N)CCCCN)CNC(=O)CSCC[C@@H](C(N)=O)NC1=O [Cyclic peptide 52, KKK(Dap(acetyl))EPRGDNYR-(Hcy)] (H-KKK[Dap]EPRGDNYR[hCys]-NH2; linker 4-13 via X1) | – | 7.00 to 7.30 | – | B (The residual rate of the cyclic peptide is 50% or more and less than 70%.) |
| CC[C@H](C)[C@@H]1NC(=O)[C@@H](NC(=O)CNC(=O)[C@H](CCCCN)NC(=O)[C@H](CCCCN)NC(=O)[C@@H](N)CCCCN)CCCCNC(=O)CSC[C@@H](C(=O)N[C@@H](C)C(=O)O)NC(=O)[C@H](CCCNC(=N)N)NC(=O)[C@H](Cc2ccccc2)NC(=O)[C@H]([C@@H](C)O)NC(=O)[C@H](CC(=O)O)NC(=O)CNC(=O)[C@H](CCCNC(=N)N)NC(=O)[C@@H]2CCCN2C1=O [Cyclic peptide 140, KKKG(Lys(acetyl))IPRGDTFR(C)A] (H-KKKGKIPRGDTFRCA-OH; linker 5-14 via X1) | 7.00 to 7.30 | – | C (The residual rate of the cyclic peptide is 30% or more and less than 50%.) | – |

More lines, main results first:

| pKd (human integrin αvβ5; [2]) | pKd (human integrin αvβ5; [3]) | SMILES | Stability (molecule stability, residual rate of the cyclic peptide rank) [1] | Performance evaluation: Stability (residual rate of cyclic peptide after alkali treatment) [1] |
| --- | --- | --- | --- | --- |
| > 7.30 | – | CC(C)[C@@H]1NC(=O)[C@@H](N)CCSCC(=O)NCC[C@@H](C(=O)N[C@@H](CCCCN)C(=O)N[C@@H](CCCCN)C(=O)N[C@@H](CCCCN)C(=O)O)NC(=O)[C@H](C)NC(=O)[C@H](Cc2ccccc2)NC(=O)[C@H]([C@@H](C)O)NC(=O)[C@H](CC(=O)O)NC(=O)CNC(=O)[C@H](CCCNC(=N)N)NC(=O)[C@@H]2CCCN2C1=O [Cyclic peptide 103, (Hcy)-VPRGDTFA(Dab(acetyl))KKK] (H-[hCys]VPRGDTFA[Dab]KKK-OH; linker 1-10 via X2) | A (The residual rate of the cyclic peptide is 70% or more.) | – |
| – | 7.00 to 7.30 | CC[C@H](C)[C@@H]1NC(=O)[C@@H](NC(=O)[C@H](CCCCN)NC(=O)[C@H](CCCCN)NC(=O)[C@@H](N)CCCCN)CCSCC(=O)NCC[C@@H](C(=O)N[C@@H](C)C(=O)O)NC(=O)[C@H](CCCNC(=N)N)NC(=O)[C@H](Cc2ccccc2)NC(=O)[C@H](CO)NC(=O)[C@H](CC(=O)O)NC(=O)CNC(=O)[C@H](CCCNC(=N)N)NC(=O)[C@@H]2CCCN2C1=O [Cyclic peptide 25, KKK-(Hcy)-IPRGDSFR(Dab(acetyl))A] (H-KKK[hCys]IPRGDSFR[Dab]A-OH; linker 4-13 via X2) | – | A (The residual rate of the cyclic peptide is 70% or more.) |
| > 7.30 | – | C[C@@H]1NC(=O)[C@H](Cc2ccccc2)NC(=O)[C@H]([C@@H](C)O)NC(=O)[C@H](CC(=O)O)NC(=O)CNC(=O)[C@H](CCCNC(=N)N)NC(=O)[C@@H]2CCCN2C(=O)[C@H](Cc2ccc(O)cc2)NC(=O)[C@@H](NC(=O)[C@H](CCCCN)NC(=O)[C@H](CCCCN)NC(=O)[C@@H](N)CCCCN)CCSCC(=O)NCC[C@@H](C(=O)O)NC1=O [Cyclic peptide 148, KKK-(Hcy)-YPRGDTFA(Dab(acetyl))] (H-KKK[hCys]YPRGDTFA[Dab]-OH; linker 4-13 via X2) | A (The residual rate of the cyclic peptide is 70% or more.) | – |
| – | > 7.30 | CC[C@H](C)[C@@H]1NC(=O)[C@@H](NC(=O)[C@H](CCCCN)NC(=O)[C@H](CCCCN)NC(=O)[C@@H](N)CCCCN)CCSCC(=O)NCC[C@@H](C(=O)N[C@@H](CC(=O)O)C(=O)O)NC(=O)[C@H](CCCNC(=N)N)NC(=O)[C@H](Cc2ccccc2)NC(=O)[C@H](CC(N)=O)NC(=O)[C@H](CC(=O)O)NC(=O)CNC(=O)[C@H](CCCNC(=N)N)NC(=O)[C@@H]2CCCN2C1=O [Cyclic peptide 5, KKK-(Hcy)-IPRGDNFR(Dab(acetyl))D] (H-KKK[hCys]IPRGDNFR[Dab]D-OH; linker 4-13 via X2) | – | A (The residual rate of the cyclic peptide is 70% or more.) |
| > 7.30 | – | CC(C)[C@@H]1NC(=O)[C@@H](NC(=O)[C@H](C)NC(=O)[C@H](CCCCN)NC(=O)[C@H](CCCCN)NC(=O)[C@@H](N)CCCCN)CCNC(=O)CSC(C)(C)[C@@H](C(=O)N[C@@H](C)C(=O)O)NC(=O)[C@H](C)NC(=O)[C@H](Cc2ccccc2)NC(=O)[C@H]([C@@H](C)O)NC(=O)[C@H](CC(=O)O)NC(=O)CNC(=O)[C@H](CCCNC(=N)N)NC(=O)[C@@H]2CCCN2C1=O [Cyclic peptide 136, KKKA(Dab(acetyl))VPRGDTFA-(Pen)-A] (H-KKKA[Dab]VPRGDTFA[Pen]A-OH; linker 5-14 via X1) | A (The residual rate of the cyclic peptide is 70% or more.) | – |
| – | 6.70 to 7.00 | C[C@H](NC(=O)[C@H](CCCCN)NC(=O)[C@H](CCCCN)NC(=O)[C@@H](N)CCCCN)C(=O)N[C@H]1CCSCC(=O)NCC[C@@H](C(=O)N[C@@H](CC(=O)O)C(=O)O)NC(=O)[C@H](CC(=O)O)NC(=O)[C@H](Cc2ccc(O)cc2)NC(=O)[C@H](CC(N)=O)NC(=O)[C@H](CC(=O)O)NC(=O)CNC(=O)[C@H](CCCNC(=N)N)NC(=O)[C@@H]2CCCN2C(=O)[C@H](CCC(=O)O)NC1=O [Cyclic peptide 35, KKKA-(Hcy)-EPRGDNYD(Dab(acetyl))D] (H-KKKA[hCys]EPRGDNYD[Dab]D-OH; linker 5-14 via X2) | – | A (The residual rate of the cyclic peptide is 70% or more.) |
| – | > 7.30 | N=C(N)NCCC[C@@H]1NC(=O)[C@H](Cc2ccc(O)cc2)NC(=O)[C@H](CC(N)=O)NC(=O)[C@H](CC(=O)O)NC(=O)CNC(=O)[C@H](CCCNC(=N)N)NC(=O)[C@@H]2CCCN2C(=O)[C@H](CCC(=O)O)NC(=O)[C@@H](NC(=O)[C@H](CCC(=O)O)NC(=O)[C@H](CCCCN)NC(=O)[C@H](CCCCN)NC(=O)[C@@H](N)CCCCN)CCSCC(=O)NCC[C@@H](C(=O)N[C@@H](CC(=O)O)C(=O)O)NC1=O [Cyclic peptide 39, KKKE-(Hcy)-EPRGDNYR(Dab(acetyl))D] (H-KKKE[hCys]EPRGDNYR[Dab]D-OH; linker 5-14 via X2) | – | A (The residual rate of the cyclic peptide is 70% or more.) |
| – | 7.00 to 7.30 | C[C@H](NC(=O)[C@H](CCCCN)NC(=O)[C@H](CCCCN)NC(=O)[C@@H](N)CCCCN)C(=O)N[C@H]1CCSCC(=O)NCC[C@@H](C(=O)NCC(=O)O)NC(=O)[C@H](CCCNC(=N)N)NC(=O)[C@H](Cc2ccc(O)cc2)NC(=O)[C@H](CC(N)=O)NC(=O)[C@H](CC(=O)O)NC(=O)CNC(=O)[C@H](CCCNC(=N)N)NC(=O)[C@@H]2CCCN2C(=O)[C@H](CCC(=O)O)NC1=O [Cyclic peptide 40, KKKA-(Hcy)-EPRGDNYR(Dab(acetyl))G] (H-KKKA[hCys]EPRGDNYR[Dab]G-OH; linker 5-14 via X2) | – | A (The residual rate of the cyclic peptide is 70% or more.) |
